# Experimental data from the supplement of paper PMC10307832.
# Tests used:
# Assay in all cases: relative viability (nuclei count vs DMSO), 5 days (fraction); higher = more cells survive
# [1] = compound: CC(C)=CC[C@@H](O)C1=CC(=O)c2c(O)ccc(O)c2C1=O [Shikonin] + Cc1cc(Nc2cc(N3CCN(C)CC3)nc(Sc3ccc(NC(=O)C4CC4)cc3)n2)n[nH]1 [Tozasertib] (partner 0.1 µM)
# Method in brief: (§1)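 The day after seeding in 1536-well plates, lung cancer cell lines were treated by pin tool with a single drug, or with a fixed anchor-drug dose together with five library-drug doses (not always all listed) in √10 steps. After 5 days, a combined fix-and-stain solution (final 0.05% Triton X-100, 1% formaldehyde, 1 ug/ml Hoechst) was added. Nuclei counted on 4× images gave relative viability as treated counts over vehicle counts, reported as the median of duplicate plates.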
# [2] = compound: CC(C)N(CCCNC(=O)Nc1ccc(C(C)(C)C)cc1)C[C@H]1O[C@@H](n2ccc3c(N)ncnc32)[C@H](O)[C@@H]1O + CC(=O)c1c(C)c2cnc(Nc3ccc(N4CCNCC4)cn3)nc2n(C2CCCC2)c1=O [Palbociclib] (partner 0.5 µM)
# Method in brief: as §1
# [3] = compound: CC(C)N(CCCNC(=O)Nc1ccc(C(C)(C)C)cc1)C[C@H]1O[C@@H](n2ccc3c(N)ncnc32)[C@H](O)[C@@H]1O + CC1(C)CCC(c2ccc(Cl)cc2)=C(CN2CCN(c3ccc(C(=O)NS(=O)(=O)c4ccc(N[C@H](CCN5CCOCC5)CSc5ccccc5)c(S(=O)(=O)C(F)(F)F)c4)cc3)CC2)C1 [Navitoclax] (partner 0.5 µM)
# Method in brief: as §1
# [4] = compound: CC(C)N(CCCNC(=O)Nc1ccc(C(C)(C)C)cc1)C[C@H]1O[C@@H](n2ccc3c(N)ncnc32)[C@H](O)[C@@H]1O + C[C@]1(O)C[C@@H](c2nc(-c3ccc4ccc(-c5ccccc5)nc4c3)c3c(N)nccn32)C1 [Linsitinib] (partner 1 µM)
# Method in brief: as §1
Cell Line,relative viability ([1]; first compound 0.01 µM),relative viability ([1]; first compound 0.1 µM),relative viability ([1]; first compound 0.3162 µM),relative viability ([1]; first compound 1 µM),relative viability ([2]; first compound 0.08 µM),relative viability ([2]; first compound 0.253 µM),relative viability ([2]; first compound 0.8 µM),relative viability ([2]; first compound 2.53 µM),relative viability ([2]; first compound 8 µM),relative viability ([3]; first compound 0.08 µM),relative viability ([3]; first compound 0.253 µM),relative viability ([3]; first compound 0.8 µM),relative viability ([3]; first compound 2.53 µM),relative viability ([3]; first compound 8 µM),relative viability ([4]; first compound 0.08 µM),relative viability ([4]; first compound 0.253 µM),relative viability ([4]; first compound 0.8 µM),relative viability ([4]; first compound 2.53 µM),relative viability ([4]; first compound 8 µM)
NCI-H1975,0.865,0.83,0.764,0.701,0.557,0.486,0.205,0.499,0.497,0.978,1.18,1.17,0.923,0.835,0.842,0.902,0.744,0.836,0.878
CAL-12T,0.322,0.294,0.325,0.432,0.418,0.341,0.488,0.445,0.38,1.14,1.27,1.19,1.19,1.19,0.788,0.772,0.809,0.89,0.739
NCI-H1623,0.423,0.472,0.441,0.449,,,,,,,,,,,,,,,
HCC-44,0.901,0.732,1.19,0.937,0.968,1.05,0.845,0.931,0.91,0.952,1.1,0.915,0.961,1.03,0.647,0.68,0.748,0.666,0.729
EKVX,0.387,0.327,0.402,0.414,0.418,0.346,0.41,0.433,0.371,0.905,0.974,0.976,0.95,0.915,0.941,0.972,0.914,0.943,0.927
NCI-H1651,0.8,0.783,0.744,0.748,0.497,0.485,0.49,0.515,0.518,1.01,1.04,1.09,1.05,0.995,0.99,0.983,0.965,1.11,0.987
NCI-H1944,0.241,0.22,0.29,0.257,0.322,0.302,0.348,0.329,0.353,0.982,0.983,0.988,1.05,1.02,1.09,1.15,1.17,1.22,1.16
NCI-H1703,,,,,,,,,,1.13,1.14,1.61,1.27,0.89,0.67,0.515,,0.721,0.612
Calu-6,,,,,,,,,,0.887,0.87,0.848,0.902,0.841,1,0.933,0.871,0.988,0.858
EBC-1,,,,,,,,,,0.406,0.387,0.383,0.363,0.388,0.656,0.74,0.598,0.885,0.727
NCI-H1993,0.627,0.547,0.571,0.551,0.616,,0.57,0.609,0.65,0.944,1.03,0.872,0.807,0.959,0.806,0.761,0.738,0.752,0.654
A-427,0.198,0.192,0.159,0.225,0.525,0.546,0.556,0.578,0.515,0.917,0.941,0.875,0.969,0.925,1.18,1.12,1.1,1.12,1.14
NCI-H2405,0.768,0.802,0.779,0.687,0.515,0.539,0.532,0.546,0.507,0.957,,0.991,1,1.05,0.901,,0.919,0.966,0.945
NCI-H1355,0.559,0.553,0.554,0.583,0.379,0.427,0.363,0.386,0.392,0.854,0.909,,0.911,0.935,0.751,0.768,,0.859,0.843
NCI-H358,0.104,0.102,0.0979,0.0975,0.121,0.127,0.143,0.135,0.132,,,,,,0.775,0.814,0.786,0.823,0.668
SK-LU-1,0.317,0.338,0.351,0.3,0.431,0.42,0.332,0.389,0.36,0.688,0.762,0.86,1.06,0.557,0.94,1.33,1.17,1.41,0.953
NCI-H23,0.363,0.335,0.658,0.413,0.517,,0.506,0.48,0.446,0.771,,0.698,0.822,0.75,0.57,,0.556,0.577,0.592
HOP-62,0.369,0.407,0.369,0.38,0.46,0.37,0.356,0.361,0.371,0.89,1.07,0.846,0.929,1.03,0.859,0.924,0.989,0.896,0.768
HARA,0.0977,0.0981,0.115,0.113,0.249,0.223,0.311,0.208,0.26,1.08,1.07,1.15,1.13,0.941,0.885,0.845,0.868,0.794,0.906
